# Reference: patent US8551965B2, “Anti-viral pyrimidine nucleoside analogues” (University College Cardiff Consultants Limited, priority 2000, dated 2013)
# Read-outs that look alike come from different tables or passages of the source.
# What was measured:
# Type in all cases: cell-based
# [1] = Cytotoxicity to human embryonic lung cells; details: 50% cytotoxic concentration to human embryonic lung cells
# [2] = tested on: varicella zoster virus (VZV) viral strain YS; TK deficient; experiment: VZV plaque reduction in tissue culture, strain YS, TK deficient; details: read-out: EC50 VZV TK-YS
# [3] = tested on: varicella zoster virus (VZV) YS viral strain; experiment: VZV plaque reduction in tissue culture, YS strain; details: read-out: EC50 VZV YS
# [4] = tested on: varicella zoster virus (VZV) OKA viral strain; experiment: microbe, parasite or virus in culture; details: read-out: EC50 VZV OKA
# [5] = tested on: varicella zoster virus (VZV) viral strain 07; TK deficient; experiment: microbe, parasite or virus in culture; details: read-out: EC50 VZV TK-07
# [6] = tested on: human embryonic lung cells; experiment: Cytotoxicity to human embryonic lung cells; details: minimum cytotoxic concentration to human embryonic lung cells
# Excerpt: MCC AM is the minimum cytotoxic concentration to human embryonic lung cells.
# [7] = tested on: human embryonic lung cells; experiment: Cytotoxicity to human embryonic lung cells; details: 50% cytotoxic concentration to human embryonic lung cells
# [8] = Human alphaherpesvirus 3, 120 h
# [9] = Human alphaherpesvirus 3, 120 h, reduce viral plaque formation after 5 days by 50% compared to untreated control, YS viral strain
# [10] = reduce viral plaque formation after 5 days by 50%, viral strain YS, TK deficient
# [11] = reduce viral plaque formation after 5 days by 50% compared to untreated control, YS viral strain
# [12] = reduce viral plaque formation after 5 days by 50% compared to untreated control, OKA viral strain
# [13] = reduce viral plaque formation after 5 days by 50%, viral strain 07, TK deficient
Compound,CC50 [1] [µM],"EC50 [2, 8] [µM]","EC50 [3, 9] [µM]","EC50 [4, 8] [µM]","EC50 [5, 8] [µM]",MCC [6],CC50 [7] [µM],"EC50 [2, 10] [µM]","EC50 [3, 11] [µM]","EC50 [4, 12] [µM]","EC50 [5, 13] [µM]","EC50 [3, 8] [µM]"
"CCCCCCCCCCc1cc2cn([C@H]3C[C@H](O)[C@@H](CO)O3)c(=O)nc2o1 [Ex2 WO 98/49177, 3-(2-deoxy-β-D-ribofuranosyl)-6-decyl-2,3-dihydrofuro [2,3-d]pyrimidin-2-one, reference compound]",> 50,> 50,0.008,0.015,> 50,>50 µM,,,,,,
"CCCCCCCCc1ccc(-c2cc3cn([C@H]4C[C@H](O)[C@@H](CO)O4)c(=O)nc3o2)cc1 [Example 6, 3-(2′-deoxy-β-D-ribofuranosyl)-6-(4-n-octylphenyl)-2,3-dihydrofuro[2,3-d]pyrimidin-2-one]",,,,,,≧20 μM,> 200,> 20,0.005,0.015,> 20,
"CCCOc1ccc(-c2cc3cn([C@H]4C[C@H](O)[C@@H](CO)O4)c(=O)nc3o2)cc1 [Example 16, 3-(2′-deoxy-β-D-ribofuranosyl)-6-(4-n-propoxyphenyl)-2,3-dihydrofuro-[2,3-d]pyrimidin-2-one]",> 200,> 50,0.002,,11,≧200 μM,,,,,,
"Cc1ccc(-c2cc3cn([C@H]4C[C@H](O)[C@@H](CO)O4)c(=O)nc3o2)cc1 [Example 8, 3-(2′-deoxy-β-D-ribofuranosyl)-6-(4-methylphenyl)-2,3-dihydrofuro-[2,3-d]pyrimidin-2-one]",,,,,,>200 µM,> 200,> 200,< 0.5,< 0.5,103,
"Nc1nc2c(ncn2COCCO)c(=O)[nH]1 [Acyclovir, reference compound]",> 200,,1,,,>200 µM,,,,,,
O=c1nc2oc(-c3ccc(Cl)cc3)cc2cn1[C@H]1C[C@H](O)[C@@H](CO)O1 [Example 11],> 200,> 20,0.08,0.1,> 20,≧20 μM,,,,,,
"O=c1nc2oc(-c3ccc(F)cc3)cc2cn1[C@H]1C[C@H](O)[C@@H](CO)O1 [Example 10, 3-(2′-deoxy-β-D-ribofuranosyl)-6-(4-fluorophenyl)-2,3-dihydrofuro-[2,3-d]pyrimidin-2-one]",,,,,,200 µM,171,> 50,> 50,> 50,> 50,
"COc1ccc(-c2cc3cn([C@H]4C[C@H](O)[C@@H](CO)O4)c(=O)nc3o2)cc1 [Example 14, 3-(2′-deoxy-β-D-ribofuranosyl)-6-(4-methoxyphenyl)-2,3-dihydrofuro-[2,3-d]pyrimidin-2-one]",> 200,> 50,0.05,,> 50,200 µM,,,,,,
"CCCCCOc1ccc(-c2cc3cn([C@H]4C[C@H](O)[C@@H](CO)O4)c(=O)nc3o2)cc1 [Example 17, 3-(2′-deoxy-β-D-ribofuranosyl)-6-(4-n-pentoxyphenyl)-2,3-dihydrofuro-[2,3-d]pyrimidin-2-one]",> 200,> 20,0.002,,3.7,>50 µM,,,,,,
"CCOc1ccc(-c2cc3cn([C@H]4C[C@H](O)[C@@H](CO)O4)c(=O)nc3o2)cc1 [Example 15, 3-(2′-deoxy-β-D-ribofuranosyl)-6-(4-ethoxyphenyl)-2,3-dihydrofuro-[2,3-d]pyrimidin-2-one]",> 200,> 50,0.01,,50,200 µM,,,,,,
"O=c1nc2oc(-c3ccccc3)cc2cn1[C@H]1C[C@H](O)[C@@H](CO)O1 [Example 7, 3-(2′-deoxy-β-D-ribofuranosyl)-6-(phenyl)-2,3-dihydrofuro-[2,3-d]pyrimidin-2-one]",,,,,,>200 µM,> 200,162,< 0.5,< 0.5,> 200,
"CCCCCCCOc1ccc(-c2cc3cn([C@H]4C[C@H](O)[C@@H](CO)O4)c(=O)nc3o2)cc1 [Example 19, 3-(2′-deoxy-β-D-ribofuranosyl)-6-(4-n-heptoxyphenyl)-2,3-dihydrofuro-[2,3-d]pyrimidin-2-one]",> 200,> 20,0.002,,> 50,≧50 μM,,,,,,
"O=c1nc2oc(-c3ccc(Br)cc3)cc2cn1[C@H]1C[C@H](O)[C@@H](CO)O1 [Example 12, 3-(2′-deoxy-β-D-ribofuranosyl)-6-(4-bromophenyl)-2,3-dihydrofuro-[2,3-d]pyrimidin-2-one]",96,> 5,0.2,0.29,> 5,>2 µM,,,,,,
"CCCCCCOc1ccc(-c2cc3cn([C@H]4C[C@H](O)[C@@H](CO)O4)c(=O)nc3o2)cc1 [Example 18, 3-(2′-deoxy-β-D-ribofuranosyl)-6(4-n-hexoxyphenyl)-2,3-dihydrofuro-[2,3-d]pyrimidin-2-one]",> 200,> 20,0.002,,> 5,>20 µM,,,,,,
"O=c1[nH]c(=O)n([C@H]2C[C@H](O)[C@@H](CO)O2)cc1/C=C/Br [BVDU, (E)-5-(2-bromo-vinyl)-2′-deoxyuridine, reference compound]",,,,,,,,,,,,0.003
